ChEMBL document CHEMBL1151269, “Caucanolides A-F, unusual antiplasmodial constituents from a colombian collection of the gorgonian coral Pseudopterogorgia bipinnata” (J Nat Prod, 2005)
Values after ≈ are worked out from the molar mass of the structure shown.

Key:
T47D = experiment: Cytotoxicity against human T47D cells; type: functional, cell-based
CCRF-CEM = experiment: Cytotoxicity against human CCRF-CEM cells; type: functional, cell-based
Plasmodium falciparum = experiment: Antiplasmodial activity against chloroquine-resistant Plasmodium falciparum W2; type: functional, organism-based
[1] = system: Mycobacterium tuberculosis; experiment: Antibacterial activity against Mycobacterium tuberculosis H37Rv at 6.25 ug/ml; type: functional
MCF7 = experiment: Cytotoxicity against human MCF7 cells; type: functional, cell-based
NCI-H460 = experiment: Cytotoxicity against human NCI-H460 cells; type: functional, cell-based

C=C(C)[C@H]([C@@H]1C=C(CCC(C=O)=C(C)C)C(=O)O1)[C@@]1(OC)C=C(C)C(=O)O1 [CAUCANOLIDE A] gave an IC50 (T47D) of 25.8 µg/mL (≈ 68.9 µM), an IC50 (CCRF-CEM) of 25.5 µg/mL (≈ 68.1 µM) and an IC50 (Plasmodium falciparum) of 17 µg/mL (≈ 45.4 µM). For the same compound, the Activity [1] was 21%, the IC50 (MCF7) was 7.6 µg/mL (≈ 20.3 µM) and the IC50 (NCI-H460) was 12.5 µg/mL (≈ 33.4 µM).

With CO[C@@](C)(/C=C1/C=C(C)C(=O)O1)C[C@@H]1C=C(CCC(C=O)=C(C)C)C(=O)O1 [CAUCANOLIDE E] the IC50 (Plasmodium falciparum) was at least 50 µg/mL.

With CO[C@]1(/C=C(\C)C[C@@H]2C=C(CCC(C=O)=C(C)C)C(=O)O2)C=C(C)C(=O)O1 [CAUCANOLIDE D] the IC50 (Plasmodium falciparum) was 15 µg/mL (≈ 40.1 µM).

For C=C(C)[C@H]([C@@H]1C=C(CCC(C(=O)/N=C/N(C)C)=C(C)C)C(=O)O1)[C@@]1(OC)C=C(C)C(=O)O1 [CAUCANOLIDE B], the IC50 (Plasmodium falciparum) was at least 50 µg/mL.

CO[C@@]1([C@H]2[C@@H](O)C=C(CCC(C=O)=C(C)C)C(=O)OC2(C)C)C=C(C)C(=O)O1 [CAUCANOLIDE C] was tested, and the IC50 (Plasmodium falciparum) was at least 50 µg/mL.

For CO[C@](C)(/C=C1/C=C(C)C(=O)O1)C[C@@H]1C=C(CCC(C=O)=C(C)C)C(=O)O1 [CAUCANOLIDE F], the IC50 (Plasmodium falciparum) was at least 50 µg/mL.
